# What was measured:
# [1] = system: Plasmodium yoelii; assay: Antimalarial activity against erythrocytic Plasmodium yoelii MRA-428 infected in CF1 mouse assessed as reduction in parasitemia at 25 mg/kg, po once daily for 4 days measured on day 5; type: functional; parameters: scale not given: the % may be the effect or the level left; conditions: time 4 day
# [2] = system: Plasmodium falciparum; assay: Antiplasmodial activity against asexual blood-stage Plasmodium falciparum Tm90-C2B using 2% haematocrit and 0.2% parasitemia assessed as reduction in fluorescence measured after 72 hrs by Malaria SYBR Green I-based Fluorescence (MSF) assay; type: functional, organism-based
# [3] = system: MDR1 (human); assay: Apparent permeability across apical to basolateral side in MDCK transfected with human MDR1 cells incubated for 1 hr by LC-MS analysis; conditions: dog, MDCK-MDR1
# [4] = system: HepG2; assay: Cytotoxicity against human HepG2 cells assessed as cell viability measured after 48 hrs by MTT assay; type: toxicity, cell-based; conditions: hepg2
# [5] = system: MDR1 (human); assay: Apparent permeability across basolateral to apical side in MDCK transfected with human MDR1 cells incubated for 1 hr by LC-MS analysis; conditions: dog, MDCK-MDR1
# [6] = in vitro; conditions: mouse, liver microsomes
# [7] = system: Plasmodium falciparum; assay: microbe, parasite or virus in culture; conditions: Dd2, 72 h
# Description: Antiplasmodial activity against asexual blood-stage Plasmodium falciparum Dd2 using 2% haematocrit and 0.2% parasitemia assessed as reduction in fluorescence measured after 72 hrs by Malaria SYBR Green I-based Fluorescence (MSF) assay
# [8] = Solubility of the compound in potassium phosphate buffer at pH 7.4 by UV-vis spectroscopy; conditions: buffer
# [9] = system: Plasmodium yoelii; assay: Antimalarial activity against erythrocytic Plasmodium yoelii MRA-428 infected in CF1 mouse assessed as reduction in parasitemia at 10 mg/kg, po once daily for 4 days measured on day 5; type: functional; parameters: scale not given: the % may be the effect or the level left; conditions: time 4 day
# [10] = Metabolic stability in mouse liver microsomes assessed as half life measured up to 60 mins by LC/MS analysis; type: ADME, Microsome
# [11] = system: Plasmodium falciparum; assay: microbe, parasite or virus in culture; conditions: D6, 72 h
# Description: Antiplasmodial activity against asexual blood-stage Plasmodium falciparum D6 using 2% haematocrit and 0.2% parasitemia assessed as reduction in fluorescence measured after 72 hrs by Malaria SYBR Green I-based Fluorescence (MSF) assay
# [12] = in vitro; conditions: human, liver microsomes
# [13] = Metabolic stability in human liver microsomes assessed as half life measured up to 60 mins by LC/MS analysis; type: ADME, Microsome
# [14] = system: Plasmodium yoelii; assay: Antimalarial activity against erythrocytic Plasmodium yoelii MRA-428 infected in CF1 mouse assessed as cured mouse at 25 mg/kg, po once daily for 4 days measured on day 28 day; type: functional, organism-based; conditions: time 4.0 day
# [15] = system: Plasmodium yoelii; assay: Antimalarial activity against erythrocytic Plasmodium yoelii MRA-428 infected in CF1 mouse assessed as cured mouse at 50 mg/kg, po once daily for 4 days measured on day 28 day; type: functional, organism-based; conditions: time 4.0 day
# [16] = system: Plasmodium yoelii; assay: Antimalarial activity against erythrocytic Plasmodium yoelii MRA-428 infected in CF1 mouse assessed as reduction in parasitemia at 50 mg/kg, po once daily for 4 days measured on day 5; type: functional; parameters: scale not given: the % may be the effect or the level left; conditions: time 4 day
SMILES,Activity [1],IC50 [2],Papp A→B at 1 h [3],IC50 [4],Papp B→A at 1 h [5],microsomal CLint at 1 h [6],IC50 [7],solubility [8],Activity [9],half-life [10],IC50 [11],microsomal CLint at 1 h [12],half-life [13],Activity [14],Activity [15],Activity [16]
CCc1ccc(C2=N/C(=C\NC3CCCCCC3)C(OC)=C2OC)[nH]1,59.6%,1.41 nM,0.059 ×10⁻⁶ cm/s,11000 nM,0.16 ×10⁻⁶ cm/s,37.9 µL/min/mg,4.97 nM,56.1 µM,13.5%,36.6 min,3.69 nM,12.6 µL/min/mg,> 60 min,,,
CCC1=C(CC)/C(=C/NC2CCCCC2)N=C1c1ccc(-c2ccc(OC)cc2)[nH]1,,18 nM,0.01 ×10⁻⁶ cm/s,6570 nM,0.003 ×10⁻⁶ cm/s,21.8 µL/min/mg,41.1 nM,< 3.125 µM,18.5%,> 60 min,33.8 nM,4.54 µL/min/mg,> 60 min,,,
CC1=C(C)/C(=C/NC2CCCCC2)N=C1c1ccc(C)[nH]1,100%,4.9 nM,0.053 ×10⁻⁶ cm/s,6820 nM,0.37 ×10⁻⁶ cm/s,37.3 µL/min/mg,4.17 nM,168 µM,0%,37.2 min,9.92 nM,13.6 µL/min/mg,> 60 min,Not active; None Of The Mouse Cured Out Of Four Tested,Not active; None Of The Mouse Cured Out Of Four Tested,100%
CC1=C(C)/C(=C/NC2CCCCCC2)N=C1c1ccc(C)[nH]1,100%,4.84 nM,0.006 ×10⁻⁶ cm/s,6770 nM,0.12 ×10⁻⁶ cm/s,37.6 µL/min/mg,3.73 nM,72.3 µM,0%,36.8 min,12.4 nM,25.2 µL/min/mg,55 min,Not active; None Of The Mouse Cured Out Of Four Tested,Not active; None Of The Mouse Cured Out Of Four Tested,100%
CCC1=C(CC)/C(=C/NC2CCCCCCC2)N=C1c1ccc(Br)[nH]1,42.3%,75.2 nM,0.006 ×10⁻⁶ cm/s,9480 nM,0.066 ×10⁻⁶ cm/s,10.4 µL/min/mg,124 nM,6.28 µM,20.4%,> 60 min,53.4 nM,9.19 µL/min/mg,> 60 min,,,
C(/NC1CCCCCC1)=C1/N=C(c2ccc[nH]2)C2=C1OCCO2,31.2%,12.6 nM,1.7 ×10⁻⁶ cm/s,7680 nM,2.9 ×10⁻⁶ cm/s,79.8 µL/min/mg,25.7 nM,183 µM,0%,19.5 min,,92.8 µL/min/mg,14.9 min,,,
COC1=C(OC)/C(=C/NC2CCCCC2)N=C1c1ccc[nH]1,70.8%,83.3 nM,4.3 ×10⁻⁶ cm/s,41600 nM,4.8 ×10⁻⁶ cm/s,74.1 µL/min/mg,73.5 nM,478 µM,0%,18.7 min,66.8 nM,94.9 µL/min/mg,14.6 min,,,
CCC1=C(CC)/C(=C/NC2CCCCCC2)N=C1c1ccc(-c2ccc(OC)cc2)[nH]1,,16.6 nM,0.045 ×10⁻⁶ cm/s,3400 nM,0.013 ×10⁻⁶ cm/s,96.1 µL/min/mg,25.4 nM,45.7 µM,4.62%,14.5 min,19.4 nM,164 µL/min/mg,8.44 min,,,
CCC1=C(CC)/C(=C/NC2CCCCC2)N=C1c1ccc(-c2ccccc2)[nH]1,,13.8 nM,0.012 ×10⁻⁶ cm/s,4730 nM,0.003 ×10⁻⁶ cm/s,17.6 µL/min/mg,27.5 nM,< 3.125 µM,0%,> 60 min,24.8 nM,15.9 µL/min/mg,> 60 min,,,
